According to ChEMBL document CHEMBL5463729, “Data for DCP probe BAY 1753011” (2023):

Columns and labels:
Details in all cases: Compound concentration 10.0 uM
[1] = molecular target: Activin receptor type-1-like (Homo sapiens) (UniProt P37023); assay: Inhibition of ALK1(h) at 10.0 µM in the Eurofins Kinase panel
[2] = molecular target: Cytoplasmic tyrosine-protein kinase BMX (Homo sapiens) (UniProt P51813); assay: Inhibition of Bmx(h) at 10.0 µM in the Eurofins Kinase panel
[3] = molecular target: Calcium/calmodulin-dependent protein kinase type II subunit gamma (Homo sapiens) (UniProt Q13555); assay: Inhibition of CaMKIIgamma(h) at 10.0 µM in the Eurofins Kinase panel
[4] = molecular target: CDK6/cyclin D3 (Homo sapiens) (UniProt P30281+Q00534); assay: Inhibition of CDK6/cyclinD3(h) at 10.0 µM in the Eurofins Kinase panel; assay type: protein-complex assay
[5] = molecular target: Cyclin-dependent kinase-like 4 (Homo sapiens) (UniProt Q5MAI5); assay: Inhibition of CDKL4(h) at 10.0 µM in the Eurofins Kinase panel
[6] = molecular target: Serine/threonine-protein kinase 17A (Homo sapiens) (UniProt Q9UEE5); assay: Inhibition of DRAK1(h) at 10.0 µM in the Eurofins Kinase panel
[7] = molecular target: Ephrin type-B receptor 1 (Homo sapiens) (UniProt P54762); assay: Inhibition of EphB1(h) at 10.0 µM in the Eurofins Kinase panel
[8] = molecular target: Insulin receptor (Homo sapiens) (UniProt P06213); assay: Inhibition of IR(h), activated at 10.0 µM in the Eurofins Kinase panel
[9] = molecular target: LIM domain kinase 2 (Homo sapiens) (UniProt P53671); assay: Inhibition of LIMK2(h) at 10.0 µM in the Eurofins Kinase panel
[10] = molecular target: Misshapen-like kinase 1 (Homo sapiens) (UniProt Q8N4C8); assay: Inhibition of MINK(h) at 10.0 µM in the Eurofins Kinase panel
[11] = molecular target: Mitogen-activated protein kinase kinase kinase 9 (Homo sapiens) (UniProt P80192); assay: Inhibition of MLK1(h) at 10.0 µM in the Eurofins Kinase panel
[12] = molecular target: Serine/threonine-protein kinase 4 (Homo sapiens) (UniProt Q13043); assay: Inhibition of MST1(h) at 10.0 µM in the Eurofins Kinase panel
[13] = molecular target: Serine/threonine-protein kinase Nek11 (Homo sapiens) (UniProt Q8NG66); assay: Inhibition of NEK11(h) at 10.0 µM in the Eurofins Kinase panel
[14] = molecular target: Serine/threonine-protein kinase NLK (Homo sapiens) (UniProt Q9UBE8); assay: Inhibition of NLK (h) at 10.0 µM in the Eurofins Kinase panel
[15] = molecular target: Serine/threonine-protein kinase PAK 2 (Homo sapiens) (UniProt Q13177); assay: Inhibition of PAK2(h) at 10.0 µM in the Eurofins Kinase panel
[16] = molecular target: MAP kinase-activated protein kinase 5 (Homo sapiens) (UniProt Q8IW41); assay: Inhibition of PRAK(h) at 10.0 µM in the Eurofins Kinase panel
[17] = molecular target: Tyrosine-protein kinase FRK (Homo sapiens) (UniProt P42685); assay: Inhibition of PTK5(h) at 10.0 µM in the Eurofins Kinase panel
[18] = molecular target: Serine/threonine-protein kinase 32A (Homo sapiens) (UniProt Q8WU08); assay: Inhibition of STK32A(h) at 10.0 µM in the Eurofins Kinase panel
[19] = molecular target: Serine/threonine-protein kinase TAO1 (Homo sapiens) (UniProt Q7L7X3); assay: Inhibition of TAO1(h) at 10.0 µM in the Eurofins Kinase panel
[20] = molecular target: Serine/threonine-protein kinase tousled-like 2 (Homo sapiens) (UniProt Q86UE8); assay: Inhibition of TLK2(h) at 10.0 µM in the Eurofins Kinase panel
[21] = molecular target: Testis-specific serine/threonine-protein kinase 2 (Homo sapiens) (UniProt Q96PF2); assay: Inhibition of TSSK2(h) at 10.0 µM in the Eurofins Kinase panel
[22] = molecular target: Tau-tubulin kinase 2 (Homo sapiens) (UniProt Q6IQ55); assay: Inhibition of TTBK2(h) at 10.0 µM in the Eurofins Kinase panel
[23] = molecular target: Tyrosine-protein kinase Yes (Homo sapiens) (UniProt P07947); assay: Inhibition of Yes(h) at 10.0 µM in the Eurofins Kinase panel
[24] = molecular target: T1, 5-hydroxytryptamine receptor 1A (Homo sapiens) (UniProt P08908)
T1 sequence (whole entry): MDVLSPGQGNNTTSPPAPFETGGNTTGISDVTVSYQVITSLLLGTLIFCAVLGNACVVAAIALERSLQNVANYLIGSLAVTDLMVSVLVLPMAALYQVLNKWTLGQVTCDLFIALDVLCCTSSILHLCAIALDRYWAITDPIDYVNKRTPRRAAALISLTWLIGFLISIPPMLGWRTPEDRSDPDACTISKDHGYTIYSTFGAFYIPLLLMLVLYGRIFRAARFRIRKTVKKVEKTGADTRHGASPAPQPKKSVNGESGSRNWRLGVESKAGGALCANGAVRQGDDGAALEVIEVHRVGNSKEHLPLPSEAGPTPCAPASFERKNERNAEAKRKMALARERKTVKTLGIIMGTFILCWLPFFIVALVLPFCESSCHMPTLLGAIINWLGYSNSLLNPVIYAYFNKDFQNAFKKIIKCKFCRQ

[25] = molecular target: Delta-type opioid receptor (Homo sapiens) (UniProt P41143)
[26] = molecular target: T2, Alpha-2C adrenergic receptor (Homo sapiens) (UniProt P18825)
T2 sequence (whole entry): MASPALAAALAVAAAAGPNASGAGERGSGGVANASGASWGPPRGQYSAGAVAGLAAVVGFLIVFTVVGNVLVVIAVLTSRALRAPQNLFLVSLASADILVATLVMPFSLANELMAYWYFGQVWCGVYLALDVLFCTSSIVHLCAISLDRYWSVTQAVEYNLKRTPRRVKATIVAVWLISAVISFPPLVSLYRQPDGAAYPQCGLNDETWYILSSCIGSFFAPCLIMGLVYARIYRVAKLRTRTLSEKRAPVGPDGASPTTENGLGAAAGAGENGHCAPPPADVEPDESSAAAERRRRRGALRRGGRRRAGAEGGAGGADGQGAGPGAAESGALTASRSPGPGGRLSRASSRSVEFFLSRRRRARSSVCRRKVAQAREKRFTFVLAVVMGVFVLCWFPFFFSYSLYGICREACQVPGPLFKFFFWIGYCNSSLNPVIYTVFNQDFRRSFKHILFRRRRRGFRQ

[27] = molecular target: Glutamate NMDA receptor (Rattus norvegicus) (UniProt P35439+Q00959+Q00960+Q00961+Q62645+Q8VHN2+Q9R1M7)

Sequence of Delta-type opioid receptor (Homo sapiens) (P41143 whole entry): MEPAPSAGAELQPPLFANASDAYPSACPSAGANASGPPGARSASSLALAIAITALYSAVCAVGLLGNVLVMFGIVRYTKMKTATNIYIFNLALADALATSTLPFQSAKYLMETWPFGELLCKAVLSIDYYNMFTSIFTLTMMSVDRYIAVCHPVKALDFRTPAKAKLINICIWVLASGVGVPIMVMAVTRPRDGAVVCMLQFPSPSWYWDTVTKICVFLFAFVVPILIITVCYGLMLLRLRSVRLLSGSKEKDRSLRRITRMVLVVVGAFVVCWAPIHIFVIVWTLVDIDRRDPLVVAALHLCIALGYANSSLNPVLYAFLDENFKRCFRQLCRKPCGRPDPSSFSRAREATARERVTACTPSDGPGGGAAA
Sequence of Serine/threonine-protein kinase 17A (Homo sapiens) (Q9UEE5 whole entry): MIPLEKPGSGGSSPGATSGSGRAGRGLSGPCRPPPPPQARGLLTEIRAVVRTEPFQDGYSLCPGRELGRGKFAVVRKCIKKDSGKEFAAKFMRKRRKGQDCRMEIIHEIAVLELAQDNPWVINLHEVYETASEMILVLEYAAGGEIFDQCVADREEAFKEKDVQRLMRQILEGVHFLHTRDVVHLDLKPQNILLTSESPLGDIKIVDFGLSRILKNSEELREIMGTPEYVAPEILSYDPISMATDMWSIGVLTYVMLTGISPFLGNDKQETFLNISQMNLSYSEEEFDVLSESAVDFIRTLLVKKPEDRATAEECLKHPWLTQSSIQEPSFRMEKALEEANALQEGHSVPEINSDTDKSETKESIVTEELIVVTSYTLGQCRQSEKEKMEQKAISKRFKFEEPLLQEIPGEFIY
Sequence of Insulin receptor (Homo sapiens) (P06213 28-758 limits assumed): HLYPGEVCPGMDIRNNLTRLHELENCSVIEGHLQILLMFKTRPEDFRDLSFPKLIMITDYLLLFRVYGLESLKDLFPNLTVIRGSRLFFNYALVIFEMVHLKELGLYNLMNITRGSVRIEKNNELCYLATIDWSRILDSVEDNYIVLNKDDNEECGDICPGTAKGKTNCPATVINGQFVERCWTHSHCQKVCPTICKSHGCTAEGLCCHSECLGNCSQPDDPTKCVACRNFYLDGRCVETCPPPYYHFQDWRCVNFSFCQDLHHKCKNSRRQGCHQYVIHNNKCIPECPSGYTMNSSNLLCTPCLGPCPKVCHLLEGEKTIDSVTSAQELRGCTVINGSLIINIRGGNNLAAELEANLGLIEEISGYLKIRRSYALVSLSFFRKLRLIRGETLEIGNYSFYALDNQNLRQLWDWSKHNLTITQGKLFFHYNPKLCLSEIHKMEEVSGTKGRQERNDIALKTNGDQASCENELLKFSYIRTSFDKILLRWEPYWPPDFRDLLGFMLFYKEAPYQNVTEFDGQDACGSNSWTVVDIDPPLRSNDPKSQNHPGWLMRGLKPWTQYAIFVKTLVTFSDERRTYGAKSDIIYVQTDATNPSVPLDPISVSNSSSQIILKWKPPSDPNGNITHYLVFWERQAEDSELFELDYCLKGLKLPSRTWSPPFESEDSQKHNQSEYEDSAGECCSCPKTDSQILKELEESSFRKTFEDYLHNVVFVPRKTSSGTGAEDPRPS
Sequence of Insulin receptor (Homo sapiens) (P06213 763-1382 limits assumed): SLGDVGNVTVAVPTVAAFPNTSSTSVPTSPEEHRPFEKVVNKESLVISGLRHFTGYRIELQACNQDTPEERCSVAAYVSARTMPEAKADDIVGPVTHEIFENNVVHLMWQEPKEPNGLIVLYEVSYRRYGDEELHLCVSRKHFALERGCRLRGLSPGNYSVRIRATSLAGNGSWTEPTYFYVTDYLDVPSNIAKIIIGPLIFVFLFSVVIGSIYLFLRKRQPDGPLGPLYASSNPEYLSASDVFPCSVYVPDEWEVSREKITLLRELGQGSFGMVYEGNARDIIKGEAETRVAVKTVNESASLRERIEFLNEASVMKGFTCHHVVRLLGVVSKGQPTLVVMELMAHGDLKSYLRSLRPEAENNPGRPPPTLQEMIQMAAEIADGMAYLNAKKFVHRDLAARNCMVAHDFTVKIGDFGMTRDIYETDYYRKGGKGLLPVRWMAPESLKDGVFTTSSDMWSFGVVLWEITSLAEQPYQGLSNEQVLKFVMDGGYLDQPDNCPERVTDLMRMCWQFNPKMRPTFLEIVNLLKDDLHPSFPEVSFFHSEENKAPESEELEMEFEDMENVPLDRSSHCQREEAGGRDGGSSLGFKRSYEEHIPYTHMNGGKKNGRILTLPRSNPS
Sequence of Serine/threonine-protein kinase 32A (Homo sapiens) (Q8WU08 whole entry): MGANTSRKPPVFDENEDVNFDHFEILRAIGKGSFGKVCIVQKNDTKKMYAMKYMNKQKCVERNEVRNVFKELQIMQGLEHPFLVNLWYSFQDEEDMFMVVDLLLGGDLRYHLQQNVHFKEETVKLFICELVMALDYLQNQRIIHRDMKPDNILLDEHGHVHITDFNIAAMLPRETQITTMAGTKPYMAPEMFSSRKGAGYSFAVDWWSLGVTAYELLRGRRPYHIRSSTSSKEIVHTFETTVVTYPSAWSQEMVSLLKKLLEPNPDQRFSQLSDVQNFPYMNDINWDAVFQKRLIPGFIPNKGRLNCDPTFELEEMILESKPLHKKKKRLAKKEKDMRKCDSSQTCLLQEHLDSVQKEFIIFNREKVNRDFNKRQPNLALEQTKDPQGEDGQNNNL
Sequence of Tyrosine-protein kinase FRK (Homo sapiens) (P42685 whole entry): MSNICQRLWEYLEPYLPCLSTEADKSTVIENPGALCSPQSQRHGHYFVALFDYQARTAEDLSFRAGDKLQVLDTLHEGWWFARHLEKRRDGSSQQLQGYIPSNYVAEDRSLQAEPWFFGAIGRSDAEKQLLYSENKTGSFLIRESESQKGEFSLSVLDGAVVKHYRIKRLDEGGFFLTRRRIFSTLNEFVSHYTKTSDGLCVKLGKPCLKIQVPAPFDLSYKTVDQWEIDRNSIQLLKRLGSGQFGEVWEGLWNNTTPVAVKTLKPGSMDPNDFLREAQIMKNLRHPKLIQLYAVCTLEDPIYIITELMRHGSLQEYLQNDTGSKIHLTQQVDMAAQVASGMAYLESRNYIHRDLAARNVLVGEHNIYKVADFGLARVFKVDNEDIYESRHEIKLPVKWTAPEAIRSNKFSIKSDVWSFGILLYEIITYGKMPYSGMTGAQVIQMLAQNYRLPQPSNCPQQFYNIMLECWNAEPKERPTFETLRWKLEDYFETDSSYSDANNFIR
Sequence of Misshapen-like kinase 1 (Homo sapiens) (Q8N4C8 whole entry, looked up): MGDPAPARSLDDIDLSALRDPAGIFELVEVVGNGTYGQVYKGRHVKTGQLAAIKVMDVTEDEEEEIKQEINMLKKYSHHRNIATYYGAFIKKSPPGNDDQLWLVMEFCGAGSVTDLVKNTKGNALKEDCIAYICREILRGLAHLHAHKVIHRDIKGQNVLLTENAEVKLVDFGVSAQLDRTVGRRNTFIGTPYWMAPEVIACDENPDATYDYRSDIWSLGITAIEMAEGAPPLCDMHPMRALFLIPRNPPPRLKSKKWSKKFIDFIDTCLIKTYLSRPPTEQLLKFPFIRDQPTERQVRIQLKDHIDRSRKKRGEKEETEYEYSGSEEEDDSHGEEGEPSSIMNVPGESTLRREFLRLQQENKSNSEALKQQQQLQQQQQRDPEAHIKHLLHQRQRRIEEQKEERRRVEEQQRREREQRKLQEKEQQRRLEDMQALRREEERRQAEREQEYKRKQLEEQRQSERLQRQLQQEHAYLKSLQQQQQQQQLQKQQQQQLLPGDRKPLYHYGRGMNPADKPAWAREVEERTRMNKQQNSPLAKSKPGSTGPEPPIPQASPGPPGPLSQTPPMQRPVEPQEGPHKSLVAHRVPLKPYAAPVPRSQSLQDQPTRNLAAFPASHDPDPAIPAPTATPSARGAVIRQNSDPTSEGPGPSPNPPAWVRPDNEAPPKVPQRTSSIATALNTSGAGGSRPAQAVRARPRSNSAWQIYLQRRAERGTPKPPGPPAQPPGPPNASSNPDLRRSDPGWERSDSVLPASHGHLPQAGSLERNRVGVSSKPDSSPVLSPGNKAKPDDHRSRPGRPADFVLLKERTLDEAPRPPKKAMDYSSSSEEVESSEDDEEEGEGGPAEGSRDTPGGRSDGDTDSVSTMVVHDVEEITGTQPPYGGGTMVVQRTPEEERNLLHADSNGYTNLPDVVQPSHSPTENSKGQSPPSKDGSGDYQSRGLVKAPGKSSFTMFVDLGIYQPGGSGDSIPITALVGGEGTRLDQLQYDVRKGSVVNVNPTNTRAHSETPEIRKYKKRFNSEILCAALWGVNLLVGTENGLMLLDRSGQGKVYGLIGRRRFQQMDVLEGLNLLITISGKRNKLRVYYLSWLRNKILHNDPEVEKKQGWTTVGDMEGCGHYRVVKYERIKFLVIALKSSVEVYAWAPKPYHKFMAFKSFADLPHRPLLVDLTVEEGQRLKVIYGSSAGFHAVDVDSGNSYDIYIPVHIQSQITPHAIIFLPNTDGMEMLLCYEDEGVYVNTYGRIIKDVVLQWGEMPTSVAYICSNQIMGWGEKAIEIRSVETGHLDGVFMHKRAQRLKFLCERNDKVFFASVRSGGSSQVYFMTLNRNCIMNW
Sequence of Cyclin-dependent kinase-like 4 (Homo sapiens) (Q5MAI5 whole entry): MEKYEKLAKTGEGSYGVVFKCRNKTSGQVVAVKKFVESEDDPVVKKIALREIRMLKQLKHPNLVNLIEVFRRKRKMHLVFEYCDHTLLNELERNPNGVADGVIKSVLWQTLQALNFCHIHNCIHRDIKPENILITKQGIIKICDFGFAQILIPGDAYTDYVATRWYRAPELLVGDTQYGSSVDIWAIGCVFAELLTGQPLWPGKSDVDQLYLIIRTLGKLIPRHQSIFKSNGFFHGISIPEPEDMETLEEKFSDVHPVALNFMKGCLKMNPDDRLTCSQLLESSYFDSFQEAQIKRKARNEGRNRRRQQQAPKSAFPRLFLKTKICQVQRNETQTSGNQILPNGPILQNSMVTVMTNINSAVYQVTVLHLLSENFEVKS

| Structure (SMILES) | inhibition [1] [%] | inhibition [2] [%] | inhibition [3] [%] | inhibition [4] [%] | inhibition [5] [%] | inhibition [6] [%] | inhibition [7] [%] | inhibition [8] [%] | inhibition [9] [%] | inhibition [10] [%] | inhibition [11] [%] | inhibition [12] [%] | inhibition [13] [%] | inhibition [14] [%] | inhibition [15] [%] | inhibition [16] [%] | inhibition [17] [%] | inhibition [18] [%] | inhibition [19] [%] | inhibition [20] [%] | other results |
| --- | --- | --- | --- | --- | --- | --- | --- | --- | --- | --- | --- | --- | --- | --- | --- | --- | --- | --- | --- | --- | --- |
| O=c1n(Cc2cncn2-c2cccc(Cl)c2)nc(-c2ccc(Cl)cc2)n1C[C@H](O)C(F)(F)F | -1.34 | -7.7 | 0.32 | 0.27 | -1.89 | -1.37 | 9.79 | 2.21 | 1.5 | 5.6 | -1.25 | 2.53 | 15.8 | -1.74 | 1.99 | 9.81 | 0.3 | -1.08 | 0.29 | -6.55 | inhibition [21]: 2.9%; inhibition [22]: -2.08%; inhibition [23]: -2.72%; inhibition [24]: 33.3%; inhibition [25]: 12.4%; inhibition [26]: -9.85%; inhibition [27]: -8% |
| C[C@H](O)c1nc(Cn2nc(-c3ccc(Cl)cc3)n(C[C@H](O)C(F)(F)F)c2=O)nn1-c1cccc(Cl)c1 [PECAVAPTAN] | -9.71 | -9.46 | -3.01 | -0.62 | 5.63 | -9.63 | 4.68 | -4.02 | 0.25 | 5.2 | 3.5 | 9.3 | 16.2 | -2.51 | 3.11 | 11.4 | 0.28 | 3.15 | 2.68 | -5.51 | inhibition [21]: -2.02%; inhibition [22]: -8.61%; inhibition [23]: -6.93%; inhibition [24]: 46.8%; inhibition [25]: 15.4%; inhibition [26]: -2.74%; inhibition [27]: 2% |
